Measured values published in patent US12318393B2, “Modulators of orphan nuclear receptors for NASH and other metabolic disorders” (Emory University, priority 2018, dated 2025).

How the values were obtained:
[1] = test system: high-fat-fed C57BL/6 mice; test: High-fat-diet C57BL/6 mice, Compound 1 7.5 mg/kg with antagomiR-control or antagomiR-122; assay type: in vivo
Description: C57BL/6 mice were fed a 50% high fat diet (HFD) for four weeks. The control cohort received three hydrodynamic tail vein injections of a 5 μg antagomiR-control and six i.p injections of saline over three weeks. A second cohort was hydrodynamic tail vein injected with 5 μg antagomiR-122 (the reverse complement that inhibits activity of miR-122) three times and i.p injections of saline six times over three weeks. A third cohort was injected i.p. with Compound 1 (7.5 mg/kg) twice a week plus antagomiR-control once a week over the course of 3 weeks. The final cohort was injected i.p. with Compound 1 (7.5 mg/kg) twice a week plus antagomiR-122 injections once a week over the course of 3 weeks.
High Fat diet fed mice. C57BL/6 male mice were fed for 8 weeks a 50% high fat diet (Envigo, DIETTD150235). All mice were kept in a pathogen-free facility, under a 12 h light/dark cycle. Research on mice was approved by the Hebrew University Institutional Animal Care and Ethics Committee.
Compound 1 and AntagomiR injections to mice. C57BL/6 male mice, 7-8 weeks old, or Sgp130FC, 9-month-old male mice, were injected i.p. with 7.5 mg/kg Compound 1 dissolved in saline and 3% DMSO. Saline was injected as control. Mice were hydrodynamic tail vain injected with antagomiR-122 or antagomiR-control (negative control) (5 μg/mouse in 1.5 ml saline). Mice were sacrificed according to the legend of the figure describing the experimental results and the livers, white adipose and skeletal muscle tissues were frozen in liquid nitrogen or in OCT embedded frozen blocks, for further RNA and histologic analysis. AntagomiRs were obtained from Sigma Aldrich, see Table 3.
Triglycerides and β-hydroxybutyrate quantification. To determine the liver and muscle lipid content, muscle and liver tissues (40-80 mg) were homogenized in 0.5 ml of chloroform: Tris solution (v/v, 1:1), the homogenate was transferred to 1 ml of chloroform: methanol solution (v/v, 2:1) centrifuged at 3000 rpm for 10 min. The organic phase was mixed with 5% Triton X100 in chloroform, dried and re-dissolved in water. After lipid extraction, TG concentration in samples was measured with Triglyceride Quantification Kit (BioVision), according to the manufactures instructions. β-hydroxybutyrate was determined utilizing commercial colorimetric kits (BioVision) directly from plasma samples.
In an effort to determine whether the mechanism of action of miR-122 and Compound 1 are aligned at the same pathway, an experiment was designed in which both molecules, together and each separately, were administered. In this study, mice were fed with a 50% HFD and therapy was initiated 4 weeks after the animals were already on a diet, to establish NASH prior to treatment. Therapies (antagomiRs given once a week, due to a prolonged half time, and RS twice weekly, due to a plasma t/2 of 2.7 hrs) were initiated after 4 weeks and given for 3 weeks. The mice were weighed from week 3 and therapies initiated a week later. […] The liver was further analyzed to assess lipotoxicity. […] A surrogate marker for energy expenditure, β-hydroxybutyrate, was also measured. A reduction in energy expenditure is associated with reduced miR-122, and energy expenditure increased upon treating with Compound 1.
Male C57BL/6J mice, 7 to 8 weeks old, were housed randomly in standard cages and were fed a HFD, or atherogenic diet (consisting 1% Chol and 0.5% cholic acid, see also Table 3). All mice had free access to water during the experimental period. During the feeding period body weight was monitored every 3 days. In the HFD experiment, after 4 or 6 weeks, the resultant obese mice were treated with antagomiR-122 ([…] once a week for 3 weeks), or i.p. injected with Compound 1 (RORα agonist, 7.5 mg/kg twice a week for 3 weeks; or 15 mg/kg 3 times a week for 3 weeks). The obese control (HFD) group was administered only saline with DMSO and antagomiR-control. […]

[2] = test system: C57BL/6 mice fed with HFD; test: Insulin tolerance test in HFD-fed C57BL/6 mice; assay type: in vivo; conditions: 15 mg/kg 3 times a week for 3 weeks
Description: At 4 months of age, an insulin tolerance test was performed on fasted C57BL/6 male mice following HFD feeding for 9 weeks following Compound 1 or saline with DMSO injections. Mice received an i.p. injection of human insulin (Actrapid) at a dosage of 0.88 units/kg followed by glucose checks every 20 minutes. […] Glucose measurements were assessed on blood from the tail following a tail snip at indicated time-points using a blood glucometer (Accu-Chek) and test strips (Accu-Chek).
Experimental design: C57BL/6 mice fed for 6 weeks with HFD were injected with 15 mg/kg Compound 1 (or saline+DMSO) 3 times a week for 3 weeks (n=6). Whole-blood glucose levels during an insulin tolerance test (ITT) in HFD fed Compound 1-treated mice vs. HFD-fed saline-treated mice and normal-diet fed mice (control ND); minutes indicate time after insulin injection. N.s.=not significant.

[3] = Cellular toxicity assay in human PBM cells; assay type: cell-based; conditions: read-out: Cytotoxicity (IC50, μM) PBM
Description: (§1) The toxicity of the compounds was assessed in human PBM, CEM (human lymphoblastoid), and Huh-7 cells, as described previously (see Schinazi R. F., Sommadossi J.-P., Saalmann V., Cannon D. L., Xie M.-Y., Hart G. C., Smith G. A. & Hahn E. F. Antimicrob. Agents Chemother. 1990, 34, 1061-67). Cycloheximide was included as positive cytotoxic control, and untreated cells exposed to solvent were included as negative controls. The cytotoxicity IC50 was obtained from the concentration-response curve using the median effective method described previously (see Chou T.-C. & Talalay P. Adv. Enzyme Regul. 1984, 22, 27-55; Belen'kii M. S. & Schinazi R. F. Antiviral Res. 1994, 25, 1-11).

[4] = Cellular toxicity assay in Huh-7 cells; assay type: cell-based; conditions: human, read-out: Cytotoxicity (IC50, μM) Huh-7
Description: as §1

O=C1Nc2cc(C(=O)N3CCC(Cc4ccccc4)CC3)ccc2Nc2ccccc21 [Compound 1]
body weight, co-administration with antagomir-122 ([1]; 7.5 mg/kg i.p. twice a week plus antagomiR-122 once a week, 3 weeks): did not decrease
body weight at the end of the experiment compared to the control group ([1]; 7.5 mg/kg i.p. twice a week plus antagomiR-control, 3 weeks): statistically lower
secretion of miR-122 (plasma) ([1]; 7.5 mg/kg i.p. twice a week, 3 weeks): enhanced
TG content in the muscle ([1]; 50% HFD, treatment for 3 weeks): decreased
energy expenditure (surrogate marker β-hydroxybutyrate) ([1]; 50% HFD, treatment for 3 weeks): increased
hepatic lipid droplets and TG content ([1]; 50% HFD, treatment for 3 weeks): reduced
insulin sensitivity compared to the untreated cohort [2]: improves
blood glucose in insulin tolerance test after 100 minutes ([2]; 100 minutes after insulin): 70%
blood glucose, initial decrease in insulin tolerance test ([2]; after 45 minutes post-injection of insulin): approximately 55%
IC50 [3]: 92.4 µM
IC50 [4]: 10.4 µM
